Experiment [1] has as its target T1, human orexin 2 receptor (Homo sapiens, UniProt O43614).
T1 construct: expressed in transfected cells
T1 sequence (O43614 1-444): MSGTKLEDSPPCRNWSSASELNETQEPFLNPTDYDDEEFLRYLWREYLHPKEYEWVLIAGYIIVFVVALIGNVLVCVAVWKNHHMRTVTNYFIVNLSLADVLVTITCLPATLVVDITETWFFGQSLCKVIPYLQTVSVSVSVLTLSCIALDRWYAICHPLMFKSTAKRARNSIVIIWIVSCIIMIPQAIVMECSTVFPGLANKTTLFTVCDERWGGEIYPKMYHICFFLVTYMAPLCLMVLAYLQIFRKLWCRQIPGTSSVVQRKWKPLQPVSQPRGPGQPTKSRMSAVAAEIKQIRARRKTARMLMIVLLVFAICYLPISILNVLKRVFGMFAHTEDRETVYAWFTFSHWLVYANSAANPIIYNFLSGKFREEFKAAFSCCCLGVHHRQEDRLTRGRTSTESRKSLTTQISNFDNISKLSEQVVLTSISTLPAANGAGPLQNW
The experiment is described as follows: Calcium accumulation in cells (FLIPR), antagonism of orexin A, human orexin 2 receptor. Type of experiment: cell-based. As to conditions: for Ki: calcium accumulation, antagonism of orexin A, Cheng-Prusoff corrected, read-out: FLIPR hOx2R Ki; for inhibition at 10 µM: measured at a concentration of 10 μM of compound, read-out: FLIPR hOx2R % inhibition. Here is the method: (§1) Calcium Accumulation in Cells (FLIPR):
(§2) Cells expressing human orexin 1 or human orexin 2 receptors, were seeded at 8,000 cells/well in 384 well black-walled clear bottom, poly-D-lysine coated plates. After 24 h, the medium was removed and cells were washed once with phosphate buffered saline and serum-deprived overnight in assay buffer (130 mM NaCl, 5.4 mM KCl, 1.8 mM CaCl2, 0.8 mM MgSO4, 0.9 mM NaH2PO4, 25 mM glucose, 20 mM HEPES, pH 7.4) containing bovine serum albumin (1% w/v).
(§3) On the day of the experiment, the cells seeded in black plates were treated with assay buffer containing the Ca^2+ sensitive fluorescent dye Fluo-4-AM (2 μM), and probenecid (0.1 mM). After 1 h plates were washed twice with, and resuspended in, assay buffer containing probenecid (0.1 mM) using a multi plate washer. The plates were placed into a FLIPR II (Fluorometric Imaging Plate Reader, Molecular Devices, Sunnyvale, Calif., USA) and baseline fluorescence (fluorescence light units, FLU) was measured (5 measurements, 2 S each; laser excitation 488 nm at 0.6-1 W, CCD camera exposure 0.4 s) before addition of buffer alone (basal) or containing test compounds (either compound of formula I alone, agonist alone or agonist in the presence of various concentrations of compounds of formula I). Fluorescence measurements were then continued every 1 S for 120 S followed by every 4 S for 240 S.
(§4) The measurements were typically made in two sequences:
(§5) Compounds of formula I were tested usually in a concentration range from 10^−9 M to 10^−5 M.
(§6) In the second round, performed one hour later (to allow for equilibration), Orexin A was tested either in the absence (calibration curves, Orexin A agonist controls) or in the presence of compounds of formula Ito determine antagonism.
(§7) Inhibition data is expressed in Table 1 as Kd [μM], converted by the Cheng and Prusoff correction (Kd=IC50/1+(L/EC50)), where IC50 is the 50% inhibition value determined in concentration response inhibition curves, EC50 is the half maximal activation concentration determined for orexin A in concentration response curves and L is the concentration of orexin A used in inhibition experiments performed in with a submaximal concentration of orexin A in the presence of up to 8 increasing concentrations of compound of formula I. Inhibition data is also expressed in Table 1 as % inhibition value measured at a concentration of 10 μM of selected compounds of formula I.

The target of experiment [2] is T2, human orexin 1 receptor (Homo sapiens, UniProt O43613).
T2 construct: expressed in transfected cells
T2 sequence (O43613 1-425): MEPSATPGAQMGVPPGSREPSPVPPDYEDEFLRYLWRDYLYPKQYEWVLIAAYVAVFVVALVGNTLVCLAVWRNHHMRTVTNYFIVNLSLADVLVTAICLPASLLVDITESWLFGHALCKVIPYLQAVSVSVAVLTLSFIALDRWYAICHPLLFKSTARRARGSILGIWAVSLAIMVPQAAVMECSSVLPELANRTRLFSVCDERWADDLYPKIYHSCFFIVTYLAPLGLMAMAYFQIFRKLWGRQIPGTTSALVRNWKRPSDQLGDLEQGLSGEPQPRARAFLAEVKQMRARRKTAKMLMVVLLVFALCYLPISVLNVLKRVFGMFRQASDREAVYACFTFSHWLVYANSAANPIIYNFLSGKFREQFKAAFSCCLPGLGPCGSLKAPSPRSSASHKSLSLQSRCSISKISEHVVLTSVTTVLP
Kind of experiment: Calcium accumulation in cells (FLIPR), antagonism of orexin A, human orexin 1 receptor. The experiment is classed as cell-based. The following applies: for Ki: calcium accumulation, antagonism of orexin A, Cheng-Prusoff corrected, read-out: FLIPR hOx1R Ki; for inhibition at 10 µM: measured at a concentration of 10 μM of compound, read-out: FLIPR hOx1R % inhibition. Here is the method: as §1, §2, §3, §4, §5, §6, §7

Molecules are shown by their SMILES. A value given as a limit tells only on which side of the number the result lay.

Broadly, the Ki is the dissociation constant of the complex between target and ligand, obtained from inhibition or displacement. For orientation: inhibition means the drop in the measured response relative to a control, in per cent.

As to `Cc1cccc(N2CCC3(CCN(Cc4c[nH]c5ccccc45)C3=O)C2)n1` (centres unmarked) [Example 5.27, 2-((1H-indol-3-yl)methyl)-7-(6-methylpyridin-2-yl)-2,7-diazaspiro[4.4]nonan-1-one], the Ki was found to be 298 nM in experiment [1] and 2390 nM in experiment [2].
Turning to `Cc1cc(C)nc(N2CCC3(CC2)NCCN(Cc2nn(C)cc2-c2ccc(C#N)cc2)C3=O)n1` [Example 1.45, 4-(3-((9-(4,6-Dimethylpyrimidin-2-yl)-5-oxo-1,4,9-triazaspiro[5.5]undecan-4-yl)methyl)-1-methyl-1H-pyrazol-4-yl)benzonitrile], the inhibition at 10 µM in experiment [1] amounted to 45%; in experiment [2], 21%.
For the molecule `COc1cc(C)nc(N2CCC3(CCN(Cc4c[nH]c5ncccc45)C3=O)CC2)n1` [Example 3.22, 2-((1H-pyrrolo[2,3-b]pyridin-3-yl)methyl)-8-(4-methoxy-6-methylpyrimidin-2-yl)-2,8-diazaspiro[4.5]decan-1-one], in experiment [1], the Ki came out at 246 nM. For the same molecule, in experiment [2], the inhibition at 10 µM was found to be 24%.
On to `O=C1N(Cc2ccccc2-c2ccccc2)CCC12CCN(c1nc3ccccc3[nH]1)CC2` [Example 3.9, 8-(1H-Benzo[d]imidazol-2-yl)-2-(biphenyl-2-ylmethyl)-2,8-diazaspiro[4.5]decan-1-one], for which the Ki is 731 nM in experiment [1] and 343 nM in experiment [2].
For the molecule `COCc1cccc(-c2oc(C)nc2CN2CCNC3(CCN(c4nc(C)cc(OC)n4)CC3)C2=O)c1` [Example 1.32, 9-(4-Methoxy-6-methylpyrimidin-2-yl)-4-((5-(3-(methoxymethyl)phenyl)-2-methyl-oxazol-4-yl)methyl)-1,4,9-triazaspiro[5.5] undecan-5-one], the figures for the Ki in experiment [1] and in experiment [2] were 84 nM and 2840 nM, respectively.
As to `CNC(=O)c1cccc(-c2cn(C)nc2CN2CCNC3(CCN(c4nc(C)cc(C)n4)CC3)C2=O)c1` [Example 1.49, 3-(3-((9-(4,6-Dimethylpyrimidin-2-yl)-5-oxo-1,4,9-triazaspiro[5.5]undecan-4-yl)methyl)-1-methyl-1H-pyrazol-4-yl)-N-methylbenzamide], the inhibition at 10 µM was 38% in experiment [1] and 20% in experiment [2].
For the molecule `O=C1CCC2(CCN(c3cnc4ccccc4n3)C2)N1Cc1cccc2[nH]ccc12` (centres unmarked) [Example 9.1], the inhibition constant (Ki) amounted to 1380 nM in experiment [1] and 666 nM in experiment [2].
On to `O=C1N(Cc2c[nH]c3ccccc23)CCC12CCN(c1ncc3cc(F)ccc3n1)C2` (centres unmarked) [Example 5.16, 2-((1H-Indol-3-yl)methyl)-7-(6-fluoroquinazolin-2-yl)-2,7-diazaspiro[4.4]nonan-1-one], for which the Ki in experiment [1] was found to be 509 nM; in experiment [2] it was 1120 nM.
In the case of `O=C1N(Cc2c[nH]c3ccccc23)CCC12CCN(c1cc3c(nn1)CCOC3)C2` (centres unmarked) [Example 5.24, 2-((1H-indol-3-yl)methyl)-7-(7,8-dihydro-5H-pyrano[4,3-c]pyridazin-3-yl)-2,7-diazaspiro[4.4]nonan-1-one], the results for the inhibition at 10 µM in experiment [1] and in experiment [2] were 54% and 25%, respectively.
On to `Cc1cc(C)nc(N2CCC3(CC2)NCCN(Cc2nn(C)cc2-c2cccc(F)c2)C3=O)n1` [Example 1.43, 9-(4,6-Dimethyl-pyrimidin-2-yl)-4-((4-(3-fluorophenyl)-1-methyl-1H-pyrazol-3-yl)methyl)-1,4,9-triazaspiro[5.5] undecan-5-one], for which, in experiment [1], the inhibition constant Ki is 447 nM. For the same molecule, the inhibition at 10 µM in experiment [2] amounted to 27%.
`Cc1ccnc(N2CCC3(CCN(Cc4c[nH]c5ccccc45)C3=O)C2)c1` (centres unmarked) [Example 5.28, 2-((1H-indol-3-yl)methyl)-7-(4-methylpyridin-2-yl)-2,7-diazaspiro[4.4]nonan-1-one]: the inhibition constant (Ki) in experiment [1] stood at 182 nM. Further, in experiment [2], the inhibition at 10 µM stood at 34%.
Turning to `COc1cc(C)nc(N2CCC3(CCN(Cc4cccc5[nH]ccc45)C3=O)C2)n1` (centres unmarked) [Example 5.10, 2-((1H-Indol-4-yl)methyl)-7-(4-methoxy-6-methylpyrimidin-2-yl)-2,7-diazaspiro[4.4]nonan-1-one], the figures for the Ki in experiment [1] and in experiment [2] were 629 nM and 1340 nM, respectively.
On the same counts, the results for `O=C1N(Cc2c[nH]c3ccccc23)CCC12CCN(c1cnc3ccccc3n1)C2` (centres unmarked) [Example 5.5, 2-((1H-Indol-3-yl)methyl)-7-(quinoxalin-2-yl)-2,7-diazaspiro[4.4]nonan-1-one] are 430 nM and 1230 nM.
In the case of `COc1cc(C)nc(N2CCC3(CCCN(Cc4c[nH]c5ncccc45)C3=O)C2)n1` (centres unmarked) [Example 7.13, 7-((1H-pyrrolo[2,3-b]pyridin-3-yl)methyl)-2-(4-methoxy-6-methylpyrimidin-2-yl)-2,7-diazaspiro[4.5]decan-6-one], the Ki is 115 nM in experiment [1] and 299 nM in experiment [2].
On the same counts, the results for `COc1ccnc(N2CCC3(CCN(Cc4ccccc4-c4nc(C)no4)C3=O)C2)n1` (centres unmarked) [Example 5.13, 7-(4-Methoxypyrimidin-2-yl)-2-(2-(3-methyl-1,2,4-oxadiazol-5-yl)benzyl)-2,7-diazaspiro[4.4]nonan-1-one] are 673 nM and 4160 nM.
For `Cc1ccnc(N2CCC3(CC2)NCCN(Cc2nc(C)oc2-c2ccccc2)C3=O)n1` [Example 1.20, 9-(4-Methyl-pyrimidin-2-yl)-4-((2-methyl-5-phenyloxazol-4-yl)methyl)-1,4,9-triazaspiro[5.5] undecan-5-one], the Ki in experiment [1] stood at 1840 nM. The inhibition at 10 µM in experiment [2] worked out at 12%.
On to `Cc1cc(C)nc(N2CCC3(CC2)OCCN(Cc2nn(C)nc2-c2ccccc2)C3=O)n1` [Example 2.12, 9-(4,6-Dimethylpyrimidin-2-yl)-4-((2-methyl-5-phenyl-2H-1,2,3-triazol-4-yl)methyl)-1-oxa-4,9-diazaspiro[5.5]undecan-5-one], for which the Ki in experiment [1] amounted to 364 nM. The inhibition at 10 µM in experiment [2] amounted to 16%.
As to `COc1cc(C)nc(N2CCC3(CC2)NCCN(Cc2nc(C)oc2-c2ccccc2)C3=O)n1` [Example 1.23, 9-(4-Methoxy-6-methylpyrimidin-2-yl)-4-((2-methyl-5-phenyloxazol-4-yl)methyl)-1,4,9-triazaspiro[5.5] undecan-5-one], the Ki in experiment [1] came out at 192 nM; in experiment [2] it was 2110 nM.
Consider `COc1ccnc(N2CCC3(CCN(Cc4ccccc4-c4nc(C)no4)C3=O)CC2)n1` [Example 3.17, 8-(4-Methoxy-pyrimidin-2-yl)-2-[2-(3-methyl-[1,2,4]oxadiazol-5-yl)-benzyl]-2,8-diaza-spiro[4.5]decan-1-one], for which the inhibitory constant (Ki) in experiment [1] stood at 298 nM. Also, the inhibition at 10 µM in experiment [2] is 37%.
On the same counts, the results for `Cc1cncc(N2CCC3(CC2)COC(=O)N3Cc2cccc3[nH]ccc23)n1` [Example 8.25, 1-((1H-Indol-4-yl)methyl)-8-(6-methylpyrazin-2-yl)-3-oxa-1,8-diazaspiro[4.5]decan-2-one] are 675 nM and under 10%.
Consider `O=C1N(Cc2ccccc2-c2ccccc2)CCC12CCN(c1nc3ccccc3s1)CC2` [Example 3.10, 8-(Benzo[d]thiazol-2-yl)-2-(biphenyl-2-ylmethyl)-2,8-diazaspiro[4.5]decan-1-one], for which, in experiment [1], the Ki amounted to 1080 nM.

The values above are taken from US20120165331A1, “Di/tri-aza-spiro-C9-C11alkanes” (priority 2010, published 2012).
